According to US5202331A, “Therapeutic agent for dysuria comprising alpha-phenyl-alpha-pyridylalkanoic acid derivatives” (Fujisawa Pharmaceutical Co., Ltd., priority 1990, dated 1993):
Values after ≈ are worked out from the molar mass of the structure shown.

Columns and labels:
[1] = test system: voiding reflex bladder contraction; experiment: Effect on voiding reflex bladder contraction in rats with the ureter ligated; assay type: in vivo; details: Rattus norvegicus, iv, voiding reflex rhythmic bladder contraction, into the jugular vein, urethane-anesthetized male S.D rats
Excerpt: A midline incision was made in the abdomen of male S.D rats (body weight 250-350 g) under urethane (1.0 g/kg i.p.) anesthesia. A small incision was made in the bladder dome and one end of a polyethylene tube was inserted and, then, ligated. To the other end of the polyethylene tube was attached a three-way cock. An infusion pump was connected to one of the joints and a transducer was connected to another joint for measurement of the intravesical pressure. Physiological saline was then infused continuously into the bladder. After confirmation of steady voiding reflexes, the ureter was ligated immediately before the next voiding and the infusion of physiological saline was stopped. After the resulting rhythmic contractions became stable, the test compound was administered into the jugular vein to evaluate its effect.

Acute toxicity test = experiment: Acute toxicity test; set-up: species or system rats (Crj:CD(SD) strain); details: rat, in vivo, 14 days observation, probit method
Protocol: Five rats (Crj:CD(SD) strain) of either sex were used per group. Solutions of the test compound were prepared as shown below and administered to rats intravenously or subcutaneously. The rats were then observed for 14 days. The LD50 values were calculated by the probit method. (Preparation of test solutions)
The test compound was dissolved in hydrochloric acid and the solution was adjusted to pH 6-7 with sodium hydrogen carbonate and diluted with physiological saline to the required concentrations.

[2] = test system: isolated guinea pig bladder detrusor muscle; experiment: Anticholinergic effect in the isolated guinea pig bladder (carbamylcholine-induced contraction); set-up: species or system male guinea pigs; details: Cavia porcellus, contractions induced with 10 μM carbamylcholine, Krebs solution
Protocol: Male guinea pigs weighing 400-700 g were fainted and killed by a blow on the occipital region. A bladder detrusor muscle specimen (15-20 mm long × 5 mm thick) was prepared by longitudinal section and suspended in a Magnus bath containing Krebs solution which was aerated with 95% O2 -5% CO2. Isotonic contractions were recorded through a tension transducer. The buffer solution was changed five times at 15-minute intervals. The equilibration time was […]. Contractions were induced with 10 μM carbamylcholine, and after the contractions became steady, the test compound was added to the Magnus bath and its anticholinergic effect was investigated.

[3] = test system: urinary bladder contraction (hyperactive bladder, detrusor hyperreflexia); experiment: Inhibition of urinary bladder contraction in the pressure-loaded hyperactive bladder model in rats; assay type: in vivo; details: Rattus norvegicus, intravenous, urethane-anesthetized male S.D. rats, hydrostatic pressure about 10 mmHg
Protocol: Male S.D. rats weighing 240-450 g were anesthetized with urethane (1.0 g/kg) s.c.. The urinary bladder was then exposed through a midline incision in the abdomen and the intravesical pressure was recorded. Thus, a balloon attached to one end of a stainless steel tube (1.2 mm in outer diameter, 5 cm in length) was inserted into the bladder through a small incision made in the bladder dome, while the other end of the tube was connected to a pressure transducer. The ureter was ligated and cut and a polyethylene cannula was inserted from the proximal cut end to drain off the urine.
Hyperactive bladder (detrusor hyperreflexia) was induced by water filling of the bladder. A hydrostatic pressure of about 10 mmHg was applied to the balloon in the bladder.
When the contractile response of the bladder to water pressure loading became steady, the test compound was administered intravenously.

SMILES: C[C@H](C[C@@](C(N)=O)(c1ccccc1)c1ccccn1)N(C)C (relative stereo) [test compound, (±)-(2R*,4R*)-4-Dimethylamino-2-phenyl-2-(2-pyridyl)-valeramide]
- ED50 [1]: 0.56 mg/kg
- LD50 at 336 h (Acute toxicity test; iv, Female): 42.3 mg/kg
- LD50 at 336 h (Acute toxicity test; iv, Male): 47.2 mg/kg
- LD50 at 336 h (Acute toxicity test; sc, Female): 915 mg/kg
- LD50 at 336 h (Acute toxicity test; sc, Male): 922 mg/kg
- IC50 [2]: 0.6 µg/mL (≈ 2.02 µM)
- ED30 [3]: 0.09 mg/kg
